# Results: patent US8273900B2, “Organic compounds” (Novartis AG, priority 2008, dated 2012)
# Counter-ions that a name gives are not always drawn.
# Molecular target: T1, human recombinant CRF-1 receptor (Homo sapiens, UniProt P34998)
# T1 construct: expressed in transfected cells; host or cells: CHO cells (G418-selected)
# T1 sequence (P34998 24-415): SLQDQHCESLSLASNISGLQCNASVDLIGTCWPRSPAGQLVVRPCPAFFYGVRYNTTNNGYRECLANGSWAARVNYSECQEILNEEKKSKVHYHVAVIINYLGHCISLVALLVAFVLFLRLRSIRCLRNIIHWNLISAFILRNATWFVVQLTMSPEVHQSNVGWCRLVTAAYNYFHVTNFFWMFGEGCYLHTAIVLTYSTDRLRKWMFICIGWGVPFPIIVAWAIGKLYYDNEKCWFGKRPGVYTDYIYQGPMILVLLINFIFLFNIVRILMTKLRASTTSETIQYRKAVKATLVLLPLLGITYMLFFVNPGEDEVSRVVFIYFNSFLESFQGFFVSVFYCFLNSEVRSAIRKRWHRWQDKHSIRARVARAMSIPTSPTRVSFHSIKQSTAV
# Test: CRF-1 receptor antagonism, HTRF cAMP assay in CHO cells in the presence of 1 nM CRF
# Format: cell-based
# Settings: CHO cells expressing human recombinant CRF-1; inhibition of the effect of 1 nM CRF on cAMP
# Description: The CRF-1 or CRF-2α receptor antagonistic activity of the agents of the invention has been determined in vitro in the following assay:
# Chinese hamster ovary (CHO) cells expressing either the human recombinant CRF-1 or CRF-2a receptors (Chen et al., Proc Natl Acad Sci USA 90, 8967-8971, 1993; Liaw et al., Endocrinology 137, 72-77, 1996) are propagated in Dulbecco's modified Eagle medium supplemented with 10% foetal calf serum, non-essential amino acids, 100 U/ml penicillin, 100 mg/l streptomycin and 1 g/l geneticin (G418). For cyclic AMP determinations the Homogeneous Time-Resolved Fluoresce (HTRF) cAMP dynamic 2 kit (Cisbio International, France) was used as per manufacturers' instructions. CHO cells, previously cryopreserved, were thawed, centrifuged for 7 mins at 1200 rpm and resuspended in serum free media, then pipetted out onto clear bottomed black tissue culture treated 384-well microtitre plates (Corning Inc, US) at 2,000 cells per well. Compounds of the invention, prepared in DMSO, and subsequently diluted 50 fold in assay buffer (1× Hanks balanced salt solution, 0.2% (w/v) bovine serum albumin, 1.7 mM isobutylmethylxanthine and 10 mM Hepes, pH 7.4) are then added onto the cell containing plate where a further 2 fold dilution is performed and incubated for 15 min. Following incubation, buffer containing a 5 times final concentration of agonist is added to the plate and incubated for 30 min. Finally, d2 dye labelled cAMP and cryptate labeled anti-cAMP antibody, both made in lysis buffer, are added to the plate followed by a settling period of 1 hour. During the settling period cAMP produced by the cells competes with the d2 labelled cAMP for the anti-cAMP cryptate. The plate is read on the Pherastar (BMG, Germany). Increasing levels of endogenous cAMP produced by cells can be followed by a decrease of fluorescent signal and vice versa. Values represented by a change in arbitrary fluorescence units are converted into cAMP concentrations by use of a standard curve the reagents for which are supplied with the kit. Antagonist dose response curves (1 nM-30 μM) are constructed in the presence of 1 nM CRF. IC50 values of antagonists are calculated by fitting the percent inhibition of the effect of CRF by increasing concentrations of the antagonists. The fit is performed using the nonlinear logistic function of the Activitybase software package v 5.4.5.27 (IDBS, UK).
row,SMILES,IC50
1,"Cn1nc(NC[C@H]2CC[C@H](NC(=O)c3cc(C(F)(F)F)ccc3Cl)CC2)c2ccccc21 [Example 19.70, Trans-2-chloro-N-(4-((1-methyl-1H-indazol-3-ylamino)methyl)cyclohexyl)-5-(trifluoromethyl) benzamide]",29 nM
2,"O=C(N[C@H]1CC[C@H](CNc2n[nH]cc2-c2ccccc2)CC1)c1cc(C(F)(F)F)ccc1Cl [Example 19.94, Trans-2-chloro-N-(4-((4-phenyl-1H-pyrazol-3-ylamino)methyl)cyclohexyl)-5-(trifluoromethyl) benzamide]",59 nM
3,"O=C(N[C@H]1CC[C@H](Cn2cc3ccccc3n2)CC1)c1cc(C(F)(F)F)ccc1Cl [Example 21.2, 2-Chloro-N-(4-indazol-2-ylmethyl-cyclohexyl)-5-trifluorometnyl-benzamide]",338 nM
4,"Cc1cc(C)n(C[C@H]2CC[C@H](NC(=O)c3cc(Cl)cnc3C)CC2)n1 [Example 22.4, 5-Chloro-N-[4-(3,5-dimethyl-pyrazol-1-ylmethyl)-cyclohexyl]-2-methyl-nicotinamide]",350 nM
5,"Cc1ccncc1NC[C@H]1CC[C@@H](NC(=O)c2cc(C(F)(F)F)ccc2Cl)CC1 [Example 14.1, Cis-2-chloro-N-((1s,4s)-4-((4-methylpyridin-3-ylamino)methyl)cyclohexyl)-5-(trifluoromethyl)benzamide]",2200 nM
6,"O=C(N[C@H]1CC[C@H](CNc2cncc(F)c2)CC1)c1cc(C(F)(F)F)ccc1Cl [Example 19.1, Trans-2-chloro-N-(4-((5-fluoropyridin-3-ylamino)methyl)cyclohexyl)-5-(trifluoromethyl) benzamide]",26 nM
7,"Cc1ccc2c(NC[C@H]3CC[C@H](NC(=O)c4cc(C(F)(F)F)ccc4Cl)CC3)n[nH]c2n1 [Example 19.74, Trans-2-chloro-N-(4-((6-methyl-1H-pyrazolo[3,4-b]pyridin-3-ylamino)methyl)cyclohexyl)-5-(trifluoromethyl) benzamide]",54 nM
8,"Cc1ncc(NC[C@H]2CC[C@H](NC(=O)c3cc(C(F)(F)F)ccc3Cl)CC2)cc1Cl [Example 19.75, Trans-2-chloro-N-(4-((5-chloro-6-methylpyridin-3-ylamino)methyl)cyclohexyl)-5-(trifluoromethyl) benzamide]",54 nM
9,"O=C(N[C@H]1CC[C@H](CNc2ccc(F)cn2)CC1)c1cc(C(F)(F)F)ccc1Cl [Example 19.2, Trans-2-chloro-N-(4-((5-fluoropyridin-2-ylamino)methyl)cyclohexyl)-5-(trifluoromethyl) benzamide]",23 nM
10,"Cc1ccc2[nH]nc(NC[C@H]3CC[C@H](NC(=O)c4cc(C(F)(F)F)ccc4Cl)CC3)c2c1 [Example 19.59, Trans-2-chloro-N-(4-((5-methyl-1H-indazol-3-ylamino)methyl)cyclohexyl)-5-(trifluoromethyl) benzamide]",87 nM
11,"CN(C)Cc1ccc(NC[C@H]2CC[C@H](NC(=O)c3cc(C(F)(F)F)ccc3Cl)CC2)nc1 [Example 1.34, Trans-2-Chloro-N-{4-[(5-dimethylaminomethyl-pyridin-2-ylamino)-methyl]-cyclohexyl}-5-trifluoromethyl-benzamide hydrochloride]",1240 nM
12,"O=C(N[C@H]1CC[C@H](CNc2n[nH]c3cccnc23)CC1)c1cc(C(F)(F)F)ccc1Cl [Example 19.93, Trans-N-(4-((1H-pyrazolo [4,3-b]pyridin-3-ylamino)methyl)cyclohexyl)-2-chloro-5-(trifluoromethyl) benzamide]",69 nM
13,"O=C(O)c1ccc(NC[C@H]2CC[C@H](NC(=O)c3cc(C(F)(F)F)ccc3Cl)CC2)nc1 [Example 1.33, Trans-6-{[4-(2-Chloro-5-trifluoromethyl-benzoylamino)-cyclohexylmethyl]-amino}-nicotinic acid]",6420 nM
14,"O=C(N[C@H]1CC[C@H](CNc2n[nH]cc2-c2ccc(Cl)cc2)CC1)c1cc(C(F)(F)F)ccc1Cl [Example 19.80, Trans-2-chloro-N-(4-((4-(4-chlorophenyl)-1H-pyrazol-3-ylamino)methyl)cyclohexyl)-5-(trifluoromethyl) benzamide]",15 nM
15,"O=C(N[C@H]1CC[C@H](CNc2n[nH]c3c2CCCC3)CC1)c1cc(C(F)(F)F)ccc1Cl [Example 19.49, Trans-2-chloro-N-(4-((4,5,6,7-tetrahydro-1H-indazol-3-ylamino)methyl)cyclohexyl)-5-(trifluoromethyl) benzamide]",31 nM
16,"O=C(N[C@H]1CC[C@H](CNc2cccc(F)c2)CC1)c1cc(C(F)(F)F)ccc1Cl [Example 9, Trans-2-Chloro-N-{4-[(3-fluoro-phenylamino)-methyl]-cyclohexyl}-5-trifluoromethyl-benzamide]",50 nM
17,"CN(Cc1cc(-c2ccccc2)n[nH]1)C[C@H]1CC[C@H](NC(=O)c2cc(Cl)ccc2Cl)CC1 [Example 11, Trans-2,5-Dichloro-N-(4-{[methyl-(5-phenyl-2H-pyrazol-3-ylmethyl)amino]-methyl}-cyclohexyl)-benzamide]",174 nM

# Next, values leading:
row,IC50,SMILES
1,52 nM,"COc1ccc(Cl)c(NC[C@H]2CC[C@H](NC(=O)c3cc(C(F)(F)F)ccc3Cl)CC2)n1 [Example 19.98, Trans-2-Chloro-N-{4-[(3-chloro-6-methoxy-pyridin-2-ylamino)-methyl]-cyclohexyl}-5-trifluoromethyl-benzamide]"
2,97 nM,"CCCc1cc(NC[C@H]2CC[C@H](NC(=O)c3cc(Cl)cnc3C)CC2)n[nH]1 [Example 19.110, Trans-2-Chloro-2 methyl-N-{4-[(5-propyl-1H-pyrazol-3-ylamino)-methyl]-cyclohexyl}-nicotinamide]"
3,88 nM,"O=C(N[C@H]1CC[C@H](CNc2n[nH]c3ncccc23)CC1)c1cc(C(F)(F)F)ccc1Cl [Example 19.57, Trans-N-(4-((1H-pyrazolo[3,4-b]pyridin-3-ylamino)methyl)cyclohexyl)-2-chloro-5-(trifluoromethyl) benzamide]"
4,70 nM,"Cc1ncc(Cl)cc1C(=O)N[C@H]1CC[C@H](Cn2nc(C)c(Cl)c2C)CC1 [Example 17, Trans-5-Chloro-N-[4-(4-chloro-3,5-dimethyl-pyrazol-1-ylmethyl)-cyclohexyl]-2-methyl-nicotinamide]"
5,346 nM,"O=C(N[C@H]1CC[C@H](CNCc2cc(-c3ccccc3)on2)CC1)c1cc(C(F)(F)F)ccc1Cl [Example 2.35, Trans-2-Chloro-N-(4-{[(5-phenyl-isoxazol-3-ylmethyl)-amino]-methyl}-cyclohexyl)-5-trifluoromethyl-benzamide]"
6,62 nM,"O=C(N[C@H]1CC[C@H](CNc2n[nH]c3ccc(Cl)cc23)CC1)c1cc(C(F)(F)F)ccc1Cl [Example 19.66, Trans-2-chloro-N-(4-((5-chloro-1H-indazol-3-ylamino)methyl)cyclohexyl)-5-(trifluoromethyl) benzamide]"
7,118 nM,"Cc1ncc(Cl)cc1C(=O)N[C@H]1CC[C@H](CNc2cc(C(F)(F)F)n[nH]2)CC1 [Example 19.107, Trans-5-Chloro-2-methyl-N-{4-[(5-trifluoromethyl-2H-pyrazol-3-ylamino)-methyl]-cyclohexyl}-nicotinamide]"
8,90 nM,"O=C(N[C@H]1CC[C@H](Cn2ccc(N3CCNC3=O)n2)CC1)c1cc(C(F)(F)F)ccc1Cl [Example 6, Trans-2-chloro-N-(4-((3-(2-oxoimidazolidin-1-yl)-1H-pyrazol-1-yl)methyl)cyclohexyl)-5-(trifluoromethyl)benzamide]"
